pIC50: −log10 of the molar value.
Key:
[1] = target: MAPK14 (human) (UniProt Q16539); assay: Inhibition of IL-1 Production in Whole Blood
[2] = target: MAPK14 (human) (UniProt Q16539); assay: Inhibition of IL-6 Production in Whole Blood
[3] = target: MAPK14 (human) (UniProt Q16539); assay: Inhibition of TNF Production in Whole Blood
[4] = target: MAPK14 (human) (UniProt Q16539); assay: Inhibition of IL-1 Production in LPS-Stimulated PBMCs; settings: pbmc
[5] = target: MAPK14 (human) (UniProt Q16539); assay: Inhibition of TNF-alpha Production in LPS-Stimulated PBMCs; settings: pbmc

Sequence of MAPK14 (human) (Q16539 whole entry, looked up): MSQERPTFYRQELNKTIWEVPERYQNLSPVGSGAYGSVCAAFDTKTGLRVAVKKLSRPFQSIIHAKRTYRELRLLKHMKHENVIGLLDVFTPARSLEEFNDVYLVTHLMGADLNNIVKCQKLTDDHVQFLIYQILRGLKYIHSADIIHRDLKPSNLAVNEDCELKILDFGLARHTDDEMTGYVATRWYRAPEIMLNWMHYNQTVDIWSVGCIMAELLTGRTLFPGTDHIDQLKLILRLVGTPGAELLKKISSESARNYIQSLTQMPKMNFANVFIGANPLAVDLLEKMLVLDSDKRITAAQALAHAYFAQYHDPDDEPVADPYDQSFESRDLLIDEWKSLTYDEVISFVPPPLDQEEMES

`O=C1NCN2N=C(Sc3ccccc3CO)C=CC2=C1c1c(Cl)cccc1Cl` showed a pIC50 [1] of 6.30 to 6.60, a pIC50 [2] of over 6.60 and a pIC50 [3] of over 6.60.
Work on `CC(=O)Nc1ccc(C2=C3C=CC(Sc4ccc(F)cc4)=NN3CNC2=O)c(Cl)c1` yielded a pIC50 [1] of under 6.30, a pIC50 [2] of under 6.30 and a pIC50 [3] of under 6.30.
`N=C(N)Nc1cc(F)c(F)cc1SC1=NN2CNC(=O)C(c3c(Cl)cccc3Cl)=C2C=C1` was tested, and the pIC50 [4] was under 6.30 and the pIC50 [5] was under 6.30.
Work on `O=C1NCN2N=C(Sc3ccc(F)cc3Cl)C=CC2=C1c1c(Cl)cccc1Cl` yielded a pIC50 [1] of 6.30 to 6.60, a pIC50 [2] of over 6.60 and a pIC50 [3] of 6.30 to 6.60.
In the case of `O=c1ncn2nc(Sc3ccccn3)ccc2c1-c1c(Cl)cccc1Cl`, the pIC50 [5] was under 6.30 and the pIC50 [1] was under 6.30.
Work on `Cc1ccccc1-c1cccc(N(C(N)=O)c2c(F)cccc2F)n1` yielded a pIC50 [1] of under 6.30, a pIC50 [2] of 6.30 to 6.60 and a pIC50 [3] of under 6.30.
Work on `NC(=O)N(c1cccc(-c2ccccc2)n1)c1c(Cl)cccc1Cl` yielded a pIC50 [1] of under 6.30, a pIC50 [2] of under 6.30 and a pIC50 [3] of under 6.30.
With `COC(=O)CCc1ccc(SC2=NN3CNC(=O)C(c4c(Cl)cccc4Cl)=C3C=C2C)cc1` the pIC50 [4] was 6.30 to 7.00, the pIC50 [5] was under 6.30 and the pIC50 [1] was under 6.30. For the same compound, the pIC50 [2] was under 6.30 and the pIC50 [3] was under 6.30.
`Cc1ccc(SC2=NN3CNC(=O)C(c4c(Cl)cccc4Cl)=C3C=C2)c(C)c1` gave a pIC50 [1] of under 6.30, a pIC50 [2] of under 6.30 and a pIC50 [3] of under 6.30.
For `Cc1ccccc1-c1cccc(N(C(N)=O)c2c(Cl)cccc2Cl)n1`, the pIC50 [1] was under 6.30, the pIC50 [2] was under 6.30 and the pIC50 [3] was under 6.30.
For `Nc1cc(C(F)(F)F)ccc1SC1=NN2CNC(=O)C(c3c(Cl)cccc3Cl)=C2C=C1`, the pIC50 [4] was 6.30 to 7.00 and the pIC50 [5] was under 6.30.
In the case of `Cc1cc(F)ccc1-c1cccc(C(C(N)=O)c2c(Cl)cccc2Cl)n1` (stereo not given), the pIC50 [1] was under 6.30, the pIC50 [2] was under 6.30 and the pIC50 [3] was under 6.30.
For `Nc1ccc(C2=C3C=CC(Sc4ccc(F)cc4)=NN3CNC2=O)c(Cl)c1`, the pIC50 [1] was under 6.30, the pIC50 [2] was 6.30 to 6.60 and the pIC50 [3] was under 6.30.
With `CNCc1ccccc1-c1cccc(C(C(N)=O)c2c(Cl)cccc2Cl)n1` (stereo not given) the pIC50 [4] was under 6.30, the pIC50 [5] was under 6.30 and the pIC50 [1] was under 6.30. The pIC50 [2] was under 6.30 and the pIC50 [3] was under 6.30.
Work on `Cc1cccc(Sc2ccc3c(-c4c(Cl)cccc4Cl)c(=O)ncn3n2)c1` yielded a pIC50 [4] of 6.30 to 7.00 and a pIC50 [5] of 6.30 to 7.00.
Work on `Cc1cc(F)ccc1-c1cccc(C(C(N)=O)c2c(Cl)cc(N)cc2Cl)n1` (stereo not given) yielded a pIC50 [1] of under 6.30, a pIC50 [2] of under 6.30 and a pIC50 [3] of under 6.30.
With `NC(=O)C(c1cccc(-c2ccccc2CN2CCCC2)n1)c1c(Cl)cccc1Cl` (stereo not given) the pIC50 [4] was 6.30 to 7.00 and the pIC50 [5] was under 6.30.

Source: the Kinase Knowledgebase extract (Sharma et al. 2016)
